The source made the active and inactive calls. No cut-off for these calls is given here.
How the values were obtained:
A549 = assay: Cytotoxicity against human A549 cells assessed as reduction in cell viability up to 1600 uM after 16 hrs by MTT assay; format: functional, cell-based
HeLa S3 = assay: Cytotoxicity against human HeLaS3 cells assessed as reduction in cell viability up to 1600 uM after 16 hrs by MTT assay; format: functional, cell-based
[1] = Drug uptake in human A549 cells at 30 uM after 7 to 24 hrs under normoxic condition by ICP-MS analysis; format: ADME, cell-based; settings: a549, 30 µM
[2] = Drug uptake in human HeLaS3 cells at 30 uM after 7 to 24 hrs under normoxic condition by ICP-MS analysis; format: ADME, cell-based; settings: hela s3, 30 µM
[3] = Drug uptake in human HeLaS3 cells at 30 uM after 7 to 24 hrs under hypoxic condition by ICP-MS analysis; format: ADME, cell-based; settings: hela s3, 30 µM
[4] = Drug uptake in human A549 cells at 30 uM after 7 to 24 hrs under hypoxic condition by ICP-MS analysis; format: ADME, cell-based; settings: a549, 30 µM
hexokinase [5] = assay: (§1) Substrate activity at hexokinase (unknown origin) assessed as compound phosphorylation after 1 days in presence of ATP by 31-P NMR spectroscopic analysis; format: ADME; settings: human, hexokinase (isolated enzyme); read-out: Activity
[6] = Drug uptake in human HeLaS3 cells assessed per cell at 30 uM after 7 hrs under normoxic condition by ICP-MS analysis; format: ADME, cell-based; settings: hela s3, 7 h
[7] = Drug uptake in human HeLaS3 cells assessed per cell at 30 uM after 7 hrs under hypoxic condition by ICP-MS analysis; format: ADME, cell-based; settings: hela s3, 7 h
[8] = as §1; format: ADME; settings: human, 24 h
hexokinase [9] = assay: Substrate activity at hexokinase (unknown origin) assessed as compound phosphorylation after 5 days in presence of ATP by 31-P NMR spectroscopic analysis; format: ADME; settings: human, hexokinase (isolated enzyme); read-out: Activity

Drug uptake [1]	Drug uptake [2]	Drug uptake [3]	Drug uptake [4]	metabolised at 24 h (hexokinase [5])	Drug uptake [6]	Drug uptake [7]	Activity [8]	metabolised at 120 h (hexokinase [9])	SMILES	Activity (A549)	Activity (HeLa S3)
Active	Active	Active	Active	–	0.3 fmol	0.4 fmol	Active	–	OC[C@H]1OC[C@H](B(O)O)[C@@H](O)[C@@H]1O	Active	Active
Active	Active	Active	Active	–	–	–	–	–	OC[C@H]1OC[C@H](B2OC3(CCCCC3)C3(CCCCC3)O2)[C@@H](O)[C@@H]1O	Active	Active
–	–	–	–	–	–	–	Active	19%	O=P(O)(O)OC[C@H]1OC(O)[C@H](O)[C@@H](O)[C@@H]1O (stereo partly drawn)	–	–
Active	Active	Active	Active	–	–	–	Not Active	–	CC1(C)OB([C@H]2CO[C@H](CO)[C@@H](O)[C@@H]2O)OC1(C)C	Active	Active
Active	Active	–	–	–	–	–	–	–	OC[C@H]1OC[C@H](B2OCCCO2)[C@@H](O)[C@@H]1O	Active	Active

Further lines, the molecule ahead of its results:

SMILES	Drug uptake [1]	Drug uptake [2]	Drug uptake [3]	Drug uptake [4]	metabolised at 24 h (hexokinase [5])	Drug uptake [6]	Drug uptake [7]	Activity [8]	metabolised at 120 h (hexokinase [9])	Activity (A549)	Activity (HeLa S3)
CC1CC(C)OB([C@H]2CO[C@H](CO)[C@@H](O)[C@@H]2O)O1 (stereo partly drawn)	Active	Active	–	–	–	–	–	–	–	Active	Active
c1ccc(B2OC3(CCCCC3)C3(CCCCC3)O2)c(CN2CCNCCNCCNCC2)c1	Active	Active	Active	Active	–	–	–	–	–	–	–
N[C@@H](Cc1ccc(B(O)O)cc1)C(=O)O	Active	Active	Active	Active	–	–	–	–	–	Active	Active
OC[C@H]1OC(O)[C@H](O)[C@@H](O)[C@@H]1O (stereo partly drawn) [DEXTROSE]	–	–	–	–	97%	–	–	–	–	–	–
